Test results reported in PubChem BioAssay (NCI).
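Dose response: 5 concentrations. Exposure: 48 h. Format: 96-well plates. Endpoint: linear interpolation; highest concentration if not reached. The concentration for 50% growth inhibition is given as GI50. At the TGI there is no net growth.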

How the values were obtained:
Assay in all cases: inhibition of tumour cell growth, NCI panel, 48 h
T-47D breast = system: T-47D breast
TK-10 renal = system: TK-10 renal
ACHN renal = system: ACHN renal
SW-620 colon = system: SW-620 colon
HS 578T breast = system: HS 578T breast
MALME-3M melanoma = system: MALME-3M melanoma
MOLT-4 leukemia = system: MOLT-4 leukemia
COLO 205 colon = system: COLO 205 colon
A549 NSCLC = system: A549 NSCLC
NCI-H522 lung = system: NCI-H522 lung
K-562 leukemia = system: K-562 leukemia
HOP-62 NSCLC = system: HOP-62 NSCLC
IGROV1 ovarian = system: IGROV1 ovarian
U251 CNS = system: U251 CNS
MDA-MB-231 breast = system: MDA-MB-231 breast
HCT-116 colon = system: HCT-116 colon
SF-295 CNS = system: SF-295 CNS
786-0 renal = system: 786-0 renal
OVCAR-4 ovarian = system: OVCAR-4 ovarian
HT29 colon = system: HT29 colon
HL-60(TB) leukemia = system: HL-60(TB) leukemia
NCI/ADR-RES ovarian = system: NCI/ADR-RES ovarian
UACC-257 melanoma = system: UACC-257 melanoma
HCC-2998 colon = system: HCC-2998 colon
SK-MEL-2 melanoma = system: SK-MEL-2 melanoma
HCT-15 colon = system: HCT-15 colon
RPMI-8226 leukemia = system: RPMI-8226 leukemia
SF-539 CNS = system: SF-539 CNS
SF-268 CNS = system: SF-268 CNS
SR leukemia = system: SR leukemia
DU-145 prostate = system: DU-145 prostate
SK-OV-3 ovarian = system: SK-OV-3 ovarian
SK-MEL-5 melanoma = system: SK-MEL-5 melanoma
SNB-19 CNS = system: SNB-19 CNS
SNB-75 CNS = system: SNB-75 CNS
A498 renal = system: A498 renal
BT-549 breast = system: BT-549 breast
MCF7 breast = system: MCF7 breast
CCRF-CEM leukemia = system: CCRF-CEM leukemia
LOX IMVI melanoma = system: LOX IMVI melanoma
M14 melanoma = system: M14 melanoma
NCI-H226 lung = system: NCI-H226 lung
SK-MEL-28 melanoma = system: SK-MEL-28 melanoma
SN12C renal = system: SN12C renal
OVCAR-3 ovarian = system: OVCAR-3 ovarian
KM12 colon = system: KM12 colon
RXF 393 renal = system: RXF 393 renal
HOP-92 NSCLC = system: HOP-92 NSCLC
CAKI-1 renal = system: CAKI-1 renal
OVCAR-5 ovarian = system: OVCAR-5 ovarian
OVCAR-8 ovarian = system: OVCAR-8 ovarian
NCI-H460 lung = system: NCI-H460 lung
UO-31 renal = system: UO-31 renal

COc1ccc(Nc2c3ccccc3nc3ccccc23)cc1
GI50 (T-47D breast): 2.37 µM
TGI (T-47D breast): 14.3 µM
GI50 (TK-10 renal): 2.78 µM
TGI (TK-10 renal): 13.7 µM
GI50 (ACHN renal): 1.28 µM
TGI (ACHN renal): 5.68 µM
GI50 (SW-620 colon): 0.599 µM
TGI (SW-620 colon): 14.4 µM
GI50 (HS 578T breast): 5.26 µM
TGI (HS 578T breast): 27.5 µM
GI50 (MALME-3M melanoma): 1.83 µM
TGI (MALME-3M melanoma): 9.05 µM
GI50 (MOLT-4 leukemia): 0.59 µM
TGI (MOLT-4 leukemia): 3.39 µM
GI50 (COLO 205 colon): 0.52 µM
TGI (COLO 205 colon): 1.85 µM
GI50 (A549 NSCLC): 0.809 µM
TGI (A549 NSCLC): 11 µM
GI50 (NCI-H522 lung): 1.13 µM
TGI (NCI-H522 lung): 15.7 µM
GI50 (K-562 leukemia): 0.583 µM
TGI (K-562 leukemia): 7.19 µM
GI50 (HOP-62 NSCLC): 1.27 µM
TGI (HOP-62 NSCLC): 14.4 µM
GI50 (IGROV1 ovarian): 0.629 µM
TGI (IGROV1 ovarian): 8.72 µM
GI50 (U251 CNS): 2.55 µM
TGI (U251 CNS): 14.1 µM
GI50 (MDA-MB-231 breast): 2.58 µM
TGI (MDA-MB-231 breast): 19.3 µM
GI50 (HCT-116 colon): 0.576 µM
TGI (HCT-116 colon): 11.5 µM
GI50 (SF-295 CNS): 0.904 µM
TGI (SF-295 CNS): 10.4 µM
GI50 (786-0 renal): 3.85 µM
TGI (786-0 renal): 16.7 µM
GI50 (OVCAR-4 ovarian): 2.06 µM
TGI (OVCAR-4 ovarian): 15 µM
GI50 (HT29 colon): 0.454 µM
TGI (HT29 colon): 2.71 µM
GI50 (HL-60(TB) leukemia): 1.69 µM
TGI (HL-60(TB) leukemia): 4.1 µM
GI50 (NCI/ADR-RES ovarian): 0.545 µM
TGI (NCI/ADR-RES ovarian): 15.5 µM
GI50 (UACC-257 melanoma): 2.71 µM
TGI (UACC-257 melanoma): 14.4 µM
GI50 (HCC-2998 colon): 1.92 µM
TGI (HCC-2998 colon): 11.2 µM
GI50 (SK-MEL-2 melanoma): 1.29 µM
TGI (SK-MEL-2 melanoma): 11.3 µM
GI50 (HCT-15 colon): 1.08 µM
TGI (HCT-15 colon): 15.5 µM
GI50 (RPMI-8226 leukemia): 1.26 µM
TGI (RPMI-8226 leukemia): 4.66 µM
GI50 (SF-539 CNS): 2.95 µM
TGI (SF-539 CNS): 14.6 µM
GI50 (SF-268 CNS): 3.63 µM
TGI (SF-268 CNS): 19.1 µM
GI50 (SR leukemia): 0.482 µM
TGI (SR leukemia): 4.01 µM
GI50 (DU-145 prostate): 2.43 µM
TGI (DU-145 prostate): 12.3 µM
GI50 (SK-OV-3 ovarian): 3.66 µM
TGI (SK-OV-3 ovarian): 16.2 µM
GI50 (SK-MEL-5 melanoma): 1.1 µM
TGI (SK-MEL-5 melanoma): 4.2 µM
GI50 (SNB-19 CNS): 3.19 µM
TGI (SNB-19 CNS): 18.3 µM
GI50 (SNB-75 CNS): 2.85 µM
TGI (SNB-75 CNS): 17.6 µM
GI50 (A498 renal): 0.421 µM
TGI (A498 renal): 10.5 µM
GI50 (BT-549 breast): 5.99 µM
TGI (BT-549 breast): 23.6 µM
GI50 (MCF7 breast): 0.409 µM
TGI (MCF7 breast): 13 µM
GI50 (CCRF-CEM leukemia): 1.17 µM
TGI (CCRF-CEM leukemia): 10.7 µM
GI50 (LOX IMVI melanoma): 0.984 µM
TGI (LOX IMVI melanoma): 4.81 µM
GI50 (M14 melanoma): 0.735 µM
TGI (M14 melanoma): 13.6 µM
GI50 (NCI-H226 lung): 1.2 µM
TGI (NCI-H226 lung): 3.84 µM
GI50 (SK-MEL-28 melanoma): 2.17 µM
TGI (SK-MEL-28 melanoma): 15.3 µM
GI50 (SN12C renal): 2.18 µM
TGI (SN12C renal): 13 µM
GI50 (OVCAR-3 ovarian): 1.43 µM
TGI (OVCAR-3 ovarian): 5.78 µM
GI50 (KM12 colon): 1.33 µM
TGI (KM12 colon): 15 µM
GI50 (RXF 393 renal): 2.04 µM
TGI (RXF 393 renal): 12.1 µM
GI50 (HOP-92 NSCLC): 0.259 µM
TGI (HOP-92 NSCLC): 2.93 µM
GI50 (CAKI-1 renal): 1.21 µM
TGI (CAKI-1 renal): 10.4 µM
GI50 (OVCAR-5 ovarian): 6.15 µM
TGI (OVCAR-5 ovarian): 23 µM
GI50 (OVCAR-8 ovarian): 1.89 µM
TGI (OVCAR-8 ovarian): 16.7 µM
GI50 (NCI-H460 lung): 0.479 µM
TGI (NCI-H460 lung): 6.2 µM
GI50 (UO-31 renal): 1.21 µM
TGI (UO-31 renal): 5.27 µM
